The first experiment concerns the target T1, recombinant human mPGES-1 (Homo sapiens, UniProt O14684).
T1 construct: made in house; host or cells: Rosetta E. coli (microsomal/membrane fraction)
T1 sequence (O14684 1-152): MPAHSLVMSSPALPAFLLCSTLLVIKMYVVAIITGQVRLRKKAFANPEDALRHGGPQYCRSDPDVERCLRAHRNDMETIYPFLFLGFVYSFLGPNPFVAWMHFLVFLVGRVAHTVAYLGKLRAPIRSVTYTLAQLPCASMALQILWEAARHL
Nature of the experiment: mPGES-1 inhibition test (microsomes, PGH2 substrate, HTRF detection of PGE2). In kind it is biochemical. To be noted: inhibition of mPGES-1 at 1 μM (marked in cell). Here is the method: Microsomes from Rosetta E. coli bacteria expressing recombinant human mPGES-1 is dissolved in 0.1 M KPi pH 7.4 buffer containing 2.5 mM GSH. 50 μl of the enzyme is subsequently dispensed in a 384-well plate. 0.5 μl of the inhibitor dissolved in DMSO at is thereafter added to each well and incubated for 25 minutes at room temperature. Subsequently, 2 μl of PGH2 dissolved in an appropriate solvent is added to each well and after one minute the acidified stop solution containing FeCl2 is added. 4 μl of the total volume is transferred to a separate plate and diluted 750-fold in two separate steps before HTRF detection of PGE2.
The HTRf detection is performed by the use of a commercially available kit from CisBio essentially according to the manufacturer's protocol. Briefly, 10 μl of the diluted sample is transferred to a white 384-well plate. 5 μl of d2 and 5 μl Eu3+-Cryptate labeled anti-PGE2 is added to each well containing samples by the use of a Multidrop. The plate is covered with a plastic self-adhesive film, centrifuged at 1200 rpm for 1 minute and subsequently stored at +4° C. over night.
After over night incubation the fluorescence is measured by the use of an appropriate microplate reader. The fluorescence of europium cryptate, and d2 are measured using the following excitation and emission wavelength, europium cryptate: λmax^ex=307 nm, λmax^em=620 nm and d2: λmax^ex=620 nm, λmax^em=665 nm), respectively. The extent of the specific FRET is measured as a ratio of the emission intensity at 665 nm vs. that at 620 nm. A standard curve using synthetic PGE2 is used to quantify the amount of PGE2 in unknown samples.
Regarding `CC(C)Oc1cc2c(cc1C(=O)NC1CCC3(CC1)CC3)nc(Nc1c(Cl)ccc(Cl)c1F)n2C` [Example 648, 2-(3,6-Dichloro-2-fluoro-phenylamino)-6-isopropoxy-N-(spiro[2.5]oct-6-yl)-1-methyl-1H-benzimidazole-5-carboxamide], the inhibition at 1 µM is 100%.

Still in this experiment, the particulars now being: inhibition of mPGES-1 at 10 μM.
Regarding `O=C(Nc1ccccc1)c1ccc2[nH]c(Nc3c(F)cccc3Cl)nc2c1` [Example 19, 2-(2-Chloro-6-fluoro-phenylamino)-1H-benzimidazole-5-carboxylic acid-phenylamide], the inhibition at 10 µM came to 91%. The same measure, in the same setting: under `O=C(Nc1ccc(Br)cc1)c1ccc2[nH]c(Nc3ccccc3Br)nc2c1` [Example 279, 2-(2-Bromo-phenylamino)-1H-benzimidazole-5-carboxylic acid (4-bromo-phenyl)-amide] stands 97%; under `Cc1cc(NC(=O)c2ccc3[nH]c(Nc4c(Cl)cccc4Cl)nc3c2)ncc1F` [Example 189, 2-(2,6-Dichloro-phenylamino)-1H-benzimidazole-5-carboxylic acid (5-fluoro-4-methyl-pyridin-2-yl)-amide], 94%; under `CN(C)c1cccc(F)c1Nc1nc2cc(C(=O)Nc3ccc(Br)cc3)ccc2n1C` [Example 551, N-(4-Bromophenyl)-2-(2-dimethylamino-6-fluorophenylamino)-1-methyl-1H-benzimidazole-5-carboxamide], 94%.

In the case of “2-(2-Chloro-6-fluorophenylamino-N-(4-isopropylcyclohexyl)-6-fluoro-1-methyl-1H-benzimidazole-5-carboxamide [Example 363]”, the “% inhib.” value worked out at 100%. For the molecule `Cn1c(Nc2c(Cl)cccc2Cl)nc2cc(C(=O)Nc3cc(C(C)(C)C)ccn3)ccc21` [Example 464, N-(4-tert.-Butylpyridin-2-yl)-2-(2,6-dichlorophenylamino)-1-methyl-1H-benzimidazole-5-carboxamide], the inhibition at 10 µM was 99%. The same measure, in the same setting: with `O=C(NC1CCCCCC1)c1ccc2[nH]c(Nc3c(Cl)cccc3Cl)nc2c1` [Example 214, 2-(2,6-Dichloro-phenylamino)-1H-benzimidazole-5-carboxylic acid cycloheptyl-amide] the figure was 100%; with `O=C(Nc1ccc(Br)cn1)c1ccc2nc(Nc3c(F)cccc3Cl)[nH]c2c1` [Example 192, 2-(2-Chloro-6-fluoro-phenylamino)-3H-benzimidazole-5-carboxylic acid (5-bromo-pyridin-2-yl)-amide], 100%; with `CC(C)(C)[C@H]1CC[C@H](NC(=O)c2cc3nc(Nc4c(F)cccc4Cl)[nH]c3cc2F)CC1` [Example 357, N-((1r,4r)-4-tert.-Butylcyclohexyl)-2-(2-chloro-6-fluorophenylamino)-6-fluoro-1H-benzimidazole-5-carboxamide], 100%. Same read-out and setting: under `Cc1cc(C)c(Nc2nc3cc(C(=O)Nc4ccc(Br)cc4)ccc3n2C)c(Cl)c1` [Example 489, N-(4-Bromophenyl)-2-(2-chloro-4,6-dimethylphenylamino)-1-methyl-1H-benzimidazole-5-carboxamide] stands 98%; under `Cn1c(Nc2c(Cl)cccc2Cl)nc2cc(C(=O)NCCCC3CC3)c(F)cc21` [Example 398, N-(3-Cyclopropylpropyl)-2-(2,6-dichlorophenylamino)-6-fluoro-1-methyl-1H-benzimidazole-5-carboxamide], 96%.

As for `CC(C)Oc1cc2[nH]c(Nc3c(Cl)ccc(Cl)c3F)nc2cc1C(=O)NC1CCC2(CC1)CC2` [Example 615, 2-(3,6-Dichloro-2-fluoro-phenylamino)-6-isopropoxy-N-(spiro[2.5]oct-6-yl)-1H-benzimidazole-5-carboxamide], the inhibition at 10 µM worked out at 96%. Turning to `O=C(Nc1ccc(Cl)c(Cl)c1)c1ccc2[nH]c(Nc3c(Cl)cccc3Cl)nc2c1` [Example 111, 2-(2,6-Dichloro-phenylamino)-1H-benzimidazole-5-carboxylic acid (3,4-dichloro-phenyl)-amide], the inhibition at 10 µM worked out at 100%. Still for that read-out and setting: with `O=C(N[C@H]1CC[C@H](C(F)(F)F)CC1)c1cc2nc(Nc3c(Cl)cccc3Cl)[nH]c2cc1OCC(F)(F)F` [Example 589, 2-(2,6-Dichloro-phenylamino)-6-(2,2,2-trifluoroethoxy)-N-(trans-4-trifluormethyl-cyclohex-1-yl)-1H-benzimidazole-5-carboxamide] the figure was 100%. Same read-out and setting: under `O=C(N[C@H]1CC[C@H](C(F)(F)F)CC1)c1cc2nc(Nc3c(Cl)cc(F)cc3Cl)[nH]c2cc1OCC(F)(F)F` [Example 583, 2-(2,6-Dichloro-4-fluoro-phenylamino)-N-(trans-4-trifluoromethyl-cyclohex-1-yl)-6-(2,2,2-trifluoroethoxy)-1H-benzimidazole-5-carboxamide] stands 95%. Regarding `CC(C)NC(=O)c1cc(Br)c2[nH]c(Nc3c(Cl)cccc3Cl)nc2c1` [Example 570, 7-Bromo-N-isopropyl-2-(2,6-dichlorophenylamino)-1H-benzimidazole-5-carboxamide], the inhibition at 10 µM amounted to 84%. The same measure, in the same setting: under `O=C(Nc1ccc(C(F)(F)F)cn1)c1ccc2[nH]c(Nc3c(Cl)cccc3Cl)nc2c1` [Example 191, 2-(2,6-Dichloro-phenylamino)-1H-benzimidazole-5-carboxylic acid (5-trifluoromethyl-pyridin-2-yl)-amide] stands 99%; under `COc1cccnc1CNC(=O)c1cc2nc(Nc3c(Cl)cccc3Cl)n(C)c2cc1F` [Example 529, 2-(2,6-Dichlorophenylamino)-6-fluoro-N-((3-methoxypyridin-2-yl)methyl)-1-methyl-1H-benzimidazole-5-carboxamide], 93%; under `Cn1c(Nc2c(Cl)cccc2Cl)nc2cc(C(=O)Nc3ccc(S(C)(=O)=O)cc3)ccc21` [Example 250, 2-(2,6-Dichloro-phenylamino)-1-methyl-1H-benzimidazole-5-carboxylic acid (4-methanesulfonyl-phenyl)-amide], 73%.

Take `O=C(N[C@H]1CC[C@H](C(F)(F)F)CC1)c1cc2nc(Nc3c(Cl)cc(F)cc3Cl)[nH]c2cc1OCC(F)F` [Example 587, 2-(2,6-Dichloro-4-fluoro-phenylamino)-N-(trans-4-trifluoromethyl-cyclohex-1-yl)-6-(2,2-difluoroethoxy)-1H-benzimidazole-5-carboxamide]: the inhibition at 10 µM is 97%.

As to `CCCCCCCCNC(=O)c1cc2nc(Nc3c(Cl)cccc3Cl)n(C)c2cc1F` [Example 166, 2-(2,6-Dichloro-phenylamino)-6-fluoro-1-methyl-1H-benzimidazole-5-carboxylic acid octylamide], the inhibition at 10 µM was determined as 100%. Same read-out and setting: with `O=C(N[C@H]1CC[C@H](C(F)(F)F)CC1)c1cc2nc(Nc3c(F)ccc(F)c3Cl)[nH]c2cc1OCC(F)(F)F` [Example 594, 2-(2-Chloro-3,6-difluoro-phenylamino)-N-(4-trans-trifluoromethyl-cyclohex-1-yl)-6-(2,2,2-trifluorethoxy)-1H-benzimidazole-5-carboxamide] the figure was 94%; with `COc1cc2c(cc1C(=O)NCc1ncccc1C(F)(F)F)nc(Nc1c(Cl)cccc1Cl)n2C` [Example 370, 2-(2,6-Dichlorophenylamino)-6-methoxy-1-methyl-N-((3-trifluoromethyl-pyridin-2-yl)methyl)-1H-benzimidazole-5-carboxamide], 100%. `CO[C@H]1CC[C@H](NC(=O)c2ccc3c(c2)nc(Nc2c(Cl)cccc2Cl)n3C)CC1` [Example 240, 2-(2,6-Dichloro-phenylamino)-1-methyl-1H-benzimidazole-5-carboxylic acid (trans-4-methoxy-cyclohexyl)-amide]: the inhibition at 10 µM is 80%. The same measure, in the same setting: with `Cn1c(Nc2c(Cl)cccc2Cl)nc2cc(C(=O)NCc3ncccc3Cl)c(F)cc21` [Example 452, N-((3-Chloropyridin-2-yl)methyl)-2-(2,6-dichlorophenylamino)-6-fluoro-1-methyl-1H-benzimidazole-5-carboxamide] the figure was 93%. As for `Cn1c(Nc2c(F)cccc2Cl)nc2cc(C(=O)N[C@H]3CC[C@H](C(F)F)CC3)c(F)cc21` [Example 476, 2-(2-Chloro-6-fluorophenylamino)-N-((1r,4r)-4-(difluoromethyl)cyclohexyl)-6-fluoro-1-methyl-1H-benzimidazole-5-carboxamide], the inhibition at 10 µM was 100%.

The experiment is the same for the next values; noted with them: inhibition of mPGES-1 at 10 μM; 10 µM.
Regarding `Cn1c(Nc2c(Cl)cccc2Cl)nc2cc(C(=O)NCc3ccccn3)c(F)cc21` [Example 552, 2-(2,6-Dichlorophenylamino)-6-fluoro-1-methyl-N-(pyridin-2-ylmethyl)-1H-benzimidazole-5-carboxamide], the “% inhib.” value turned out to be 77%.
